Measurements: patent publication US20210299260A1, “THERAPEUTIC CONJUGATES” (Ariel Scientific Innovations Ltd., priority 2018, published 2021)

How the values were obtained:
[1] = literature report; cited from earlier work
physchem = assay type: physicochemical; conditions: for half-life: buffer
Description: These studies were performed for Compound 1 at two pH values: 4.6 and 7.4, and compared to triazene drug dacarbazine (DTIC). These chosen pHs mimic relatively acidic cancer intracellular (pH 4.6) and slightly basic physiological (pH 7.4) environments.
(§1) The results for DTIC are consistent with the reported stability of the control drug in various hydrolytic media. In addition, Compound 1 decomposition has been studied by hepatic cytochrome P450 induction in hepatocellular carcinoma HepG2 cells using LC-MS (FIG. 1D). […] The decomposition of Compound 1 was examined in cell medium and in cell lysate, while the identification of metabolites was carried out solely in cell lysate.

[2] = system: hepatocellular carcinoma HepG2 cells; assay: Decomposition and metabolite detection in HepG2 cells (medium versus cell lysate), LC-MS; assay type: in vitro ADME
Description: as §1
It is assumed that this metabolite is the result of oxidation of Compound 1 by hepatic cytochrome P450 and subsequent degradation of two dimethyl triazene tethers in agreement with the mechanism of action of dacarbazine. The observed stability of Compound 1 in PBS potentiates its pharmacological utility during circulation in blood. Therefore, it is concluded that the stability of Compound 1 is sufficient for proceeding to animal models.

A172 GBM cells = assay: Intracranial A172 GBM xenograft model in nude mice (weight, survival, histopathology); conditions: for brain structure in brain sections / tumor area, tumor distribution and invasion in brain sections: H&E stained brain sections at termination; for brain structure in brain sections: FIG. 4; for brain structure in brain sections / tumor area, tumor distribution and invasion in brain sections / body weight gain of tumor-bearing mice / survival of tumor-bearing mice: Compound 1 50 mg/kg, TMZ 25 mg/kg; for body weight gain of tumor-bearing mice / survival of tumor-bearing mice: i.p. once daily, five injections; for body weight gain of tumor-bearing mice: FIG. 2; for survival of tumor-bearing mice: FIG. 3A; for tolerability to treatment: mice bearing GBM tumors, reflected by body weight and survival
Description: The efficacy of Compound 1 in inhibition of intracranial malignant brain glioblastoma growth and survival in nude mice was evaluated using nude mice that were implanted with 5×10^5 A172 GBM cells in the right striatum, followed by consequent once daily five intraperitoneal injections with the vehicle, TMZ (25 mg/kg) and Compound 1 (50 mg/kg), on the tenth day after glioblastoma implantation.
Mice brains were collected at termination day determined by appearance of severe clinical signs within tumor progression and invasion in brain tissue. Brains were fixed with 4% PFA, paraffin embedded and serially cut in to 5 μm. Three slides within a distance of 100 μm apart were sampled for each brain, and stained with hematoxyline-eosin dyes (H&E). Tumor area, distribution and invasion in to brain tissue were observed under light microscopy.

[3] = pH 7.4; cited from earlier work
[4] = listed as DKP-dimethyltriazene conjugate

## NCC(=O)CCC(=O)O [5-aminolevulinic acid]
[1]
  BBB permeability: did not show permeability

## CN(C)/N=N/c1ccc(C[C@H]2C(=O)N(C)[C@@H](Cc3ccc(/N=N/N(C)C)cc3)C(=O)N2C)cc1 [Compound 1, (3S,6S)-3,6-bis(4-((E)-3,3-dimethyltriaz-1-en-1-yl)benzyl)-1,4-dimethylpiperazine-2,5-dione]
physchem; pH 4.6
  half-life: 288 min
physchem; pH 7.4
  stability in PBS buffer: sufficient stability
[2]; HepG2, incubation in cell medium, FIG. 1C
  decomposition in cell medium: continuous decomposition
[2]; HepG2 cell lysate, FIG. 1C
  accumulation/decomposition in cell lysate: gradually accumulated within an hour of incubation and decomposed subsequently
[2]; HepG2 cell lysate, LC-MS, FIG. 1D
  main metabolite detected in cell lysate: containing monomethyl triazene (MTIC like) and aniline (AIC like) groups
A172 GBM cells
  brain structure in brain sections: normal brain structure
  tumor area, tumor distribution and invasion in brain sections: noticeable reduction
  body weight gain of tumor-bearing mice: normal weight gain
  survival of tumor-bearing mice: prominent effect on tumor bearing mice survival rate
  tolerability to treatment: good tolerability
A172 GBM cells; [4]
  body weight gain of tumor-bearing mice: no weight loss
  survival of tumor-bearing mice: superior activity compared to TMZ in overall survival

## CN(C)/N=N/c1[nH]cnc1C(N)=O [DTIC, dacarbazine, reference compound]
physchem; pH 4.6
  half-life: 306 min
physchem; pH 7.4
  half-life: 612 min

## Cn1nnc2c(C(N)=O)ncn2c1=O [TMZ, Temozolomide, reference compound]
[3]
  plasma half-life: 1.8 h
A172 GBM cells
  brain structure in brain sections: both lateral and third ventricles were significantly enlarged
  tumor area, tumor distribution and invasion in brain sections: noticeable reduction
  body weight gain of tumor-bearing mice: Significant body weight gain reduction
  tolerability to treatment: relatively toxic and poorly tolerable

## O=C(O)C1CCCNC1 (centres unmarked) [nipecotic acid]
[1]
  BBB permeability: did not show permeability

## NCCCC(=O)O [γ-aminobutyric acid]
[1]
  BBB permeability: did not show permeability

## N-Me-Phe-(N-Me-Phe)3-CONH2
[1]
  BBB permeability: High BBB-permeability
